Assay: Human HepG2 cell viability assay in 384 well format
Type: toxicity, cell-based
Design: dose 125 nL, time 70.5 hour; concentration not given beside the values
Settings: HepG2 cells, read-out: Inhibition

| Structure (SMILES) | cytotoxicity at 70.5 h |
| --- | --- |
| COc1nc(C)ccc1CNC(=O)NC(c1ncc(C)s1)C1CC1 (stereo not drawn) | -2.73% |
| COc1c(C)cc(CNCc2ccnc(N3CCOCC3)c2)cc1C | 2.82% |
| Cc1ccsc1C(=O)N1C[C@@H]2CN(Cc3ccoc3)CCO[C@@H]2C1 | -1.7% |
| CCc1ccccc1OCCNCCc1c[nH]cn1 | 29.6% |
| Cc1ccc(C(=O)N2C[C@H]3CCC[C@@]3(COCc3cccnc3)C2)s1 | -12% |
| Cc1cccc(NC2CCN(C(=O)Nc3cn[nH]c3)CC2)n1 | -6.92% |
| CC1CCN(CCNC(=O)c2sccc2C2CC2)CC1 | -5.27% |
| CN1C[C@@H](NC(=O)c2cc(F)cc(F)c2)C[C@H]1C(=O)NCc1ncc[nH]1 | -16.2% |
| Cc1cccc(C(C(=O)N2CCN(C(=O)c3ccc[nH]3)CC2)N(C)C)c1 (stereo not drawn) | -8.99% |
| CC(=O)c1ccc(-n2ccc3nc(N4CCCC4)ncc3c2=O)cc1 | -5.08% |
| Cc1cccc(C2(NC(=O)CCCn3cncn3)CCCC2)c1 | -5.53% |
| Cc1cc(NCCC(=O)NC2CCCC2)nc(-c2ccncc2)n1 | 0.777% |
| O=C(NCc1ccco1)[C@H]1C[C@H]2OCC[C@H]2N(C(=O)c2ccnnc2)C1 | -12.6% |
| Cn1cc(C(=O)CC2CCCN2C(=O)c2ccc(Cl)o2)cn1 (stereo not drawn) | 2.73% |
| Cc1cc(NC(=O)N(C)C2CCN(c3ccccc3F)C2=O)n(C)n1 (stereo not drawn) | -0.35% |
| CCc1[nH]c2c(CNc3cncc(C(=O)N(C)C)n3)cc(C)cc2c1C | 27.8% |
| CN(CCO)Cc1nnc(C2CCN(C3CCCCC3)CC2)n1C | -14.7% |
| CNC(=O)C1Cn2ccnc2C2(CCN(Cc3csc(C)n3)CC2)O1 (stereo not drawn) | -2.63% |
| Cc1ccnn1CC(=O)N(C)Cc1cnn(-c2ccccc2)c1 | -1.98% |
| O=C(N1CCCO1)[C@]12COC[C@H]1CN(Cc1cccnc1)C2 | -7.03% |
| c1ccc(CCN2CCN(c3ncnc4[nH]ccc34)CC2)cc1 | -3.03% |
| Cc1cccc(OC2(C(=O)O)CCN(C(=O)CCc3ccco3)CC2)c1 | 30.3% |
| O=C(COc1ccccc1NCc1ccoc1)N1CCOCC1 | -18.1% |

| Structure (SMILES) | cytotoxicity at 70.5 h |
| --- | --- |
| c1ccc(OCC2C[C@@H]3[C@@H](C2)OCCN3CC2CCOCC2)nc1 (stereo partly drawn) | -0.766% |
| CCOCCCC(=O)Nc1cccnc1-n1ccnc1C | -6.87% |
| CC(C)c1nnc2n1CCN(C(=O)c1ccc(OCC(N)=O)cc1)C2 | -4.33% |
| CC(C)(C)n1nnnc1CN(Cc1ccccc1)Cc1ccccc1Cl | -5.12% |
| CNc1cncc(C2CCCN2S(=O)(=O)c2ccccc2)n1 (stereo not drawn) | 0.983% |
| Cn1cc(-c2csc(N3CCSCC3)n2)cn1 | -3.33% |
| Cc1nc(C)n(CC2CCCCN2Cc2nc(-c3ccoc3)no2)n1 (stereo not drawn) | -11.8% |
| Cn1c(=O)oc2cc(Nc3nccnc3C#N)ccc21 | -2.2% |
| CCC1CN(C(=O)c2ccc(=O)[nH]n2)CCC(=O)N1Cc1ccccc1 (stereo not drawn) | 1.68% |
| CCn1cc(N2Cc3nc(N4CCC(C)CC4)ncc3C2=O)cn1 | -8.76% |
| C[C@@H]1CN(S(=O)(=O)N2CCCC2)CC[C@@]1(O)C1CCOCC1 | -14% |
| CC(NC(=O)Nc1cnn(CC(N)=O)c1)c1ccc(Cl)s1 (stereo not drawn) | -1.05% |
| Cc1noc(C)c1CN1C[C@H](OCC(=O)N(C)C)[C@H]2OCCC[C@H]21 | -6.96% |
| Cc1ccc(S(=O)(=O)N2CCn3nc(C)nc3C2)c(Cl)c1 | -2.97% |
| CCOC1COC2(CCN(Cc3cccnc3OC)CC2)C1 (stereo not drawn) | -1.38% |
| CCc1nnc(N[C@H](C)c2cccc(OC)c2)o1 | -20.2% |
| Cc1cc(NCC(=O)N(C)CC(F)(F)F)c(C(N)=O)cc1F | 1.83% |
| Cc1cccc(CN(Cc2ccccn2)Cc2ncc(C(C)(C)C)o2)c1 | -11.5% |
| CCS(=O)(=O)CCNC1CCN(c2nc3ccc(Cl)cc3s2)CC1 | 4.49% |
| CN(CCCOc1ccccc1)S(=O)(=O)c1cnn(C)c1 | 21.2% |
| CCCC(C)(O)c1cc(C(N)=O)no1 (stereo not drawn) | -9.46% |
| CO[C@H]1CN(C(=O)OC(C)(C)C)CC1NCc1ccco1 (stereo partly drawn) | -24.9% |
| OCCNc1nccc(-c2cn3nccc3nc2C2CCCCC2)n1 | -8.52% |

| Structure (SMILES) | cytotoxicity at 70.5 h |
| --- | --- |
| CC1CCN(c2ccc3c(-c4ncc(C(=O)O)s4)noc3c2)CC1 | -5.23% |
| O=C(c1cccc2[nH]ncc12)N1CCCC1c1noc(C2CC2)n1 (stereo not drawn) | -18.3% |
| Cc1ccccc1NC(=O)c1cncc(C2CCNCC2)n1 | -4.64% |
| CC(=O)N1N=C(c2ccco2)OC1C(=O)N(CC(C)C)CC(C)C (stereo not drawn) | -1.96% |
| CCc1nnsc1C(=O)NCCCC(CC)(CC)C1OCCO1 | -15.8% |
| COc1cc(CNC(C)c2ccc(F)c(F)c2)cc2c1OCCO2 (stereo not drawn) | 1.07% |
| CN(Cc1ccccc1Cl)C(=O)c1cc(CN2CCC(O)CC2)on1 | -17.3% |
| Cc1cc(C)n(CC(C)CNC(=O)N(C)Cc2ccco2)n1 (stereo not drawn) | -10.5% |
| c1cncc(COCC2CN(Cc3ccncc3)Cc3ccnn3C2)c1 (stereo not drawn) | 1.86% |
| CCN(C)CC1CCN(C(=O)Nc2ccc(C)cc2)C1 (stereo not drawn) | -3.05% |
| Cc1nn(C)c(N2CCCN(C)CC2)c1CNC(=O)CC(C)(C)C | 3.8% |
| Cc1cc(C2CCCN2C(=O)Nc2cn[nH]c2)on1 (stereo not drawn) | -4.06% |
| CCSCC(C)NCc1nncn1C1CCCCC1 (stereo not drawn) | -2.76% |
| O=C(NCc1cc(F)cc(Br)c1)C1(O)CCSCC1 | -4.03% |
| O=C(N1CCCC(n2cncn2)C1)C1(c2cccc(F)c2)CCC1 (stereo not drawn) | -8.35% |
| O=C(Nc1ccccc1F)C1CN(C(=O)c2ccc3c(c2)OCO3)C1 | -11.5% |
| c1nc(N2CCOC(Cn3cncn3)C2)c2cc[nH]c2n1 (stereo not drawn) | -6.11% |
| c1ccc(C(CC2CN(Cc3c[nH]cn3)CCO2)c2ccccc2)cc1 (stereo not drawn) | -5.4% |
| COc1ccc(COCC(O)CN2CCC(c3ccn[nH]3)CC2)cc1 (stereo not drawn) | -8.27% |
| COCC(=O)NC1CC2(CCN(CC3CC3)CC2)Oc2ccccc21 (stereo not drawn) | 18.1% |
| CC(C)C(NC(=O)c1ccc(Cl)cc1Cl)C(=O)Nc1ccn(C)n1 (stereo not drawn) | 1.6% |
| NCC(=O)N1CCCC1c1ccc(C(=O)NCc2ccoc2)s1 (stereo not drawn) | -2.34% |
| O=S(=O)(NCCn1ccc(-c2ccccn2)n1)C1CCCCC1 | 23.9% |

| Structure (SMILES) | cytotoxicity at 70.5 h |
| --- | --- |
| O=C(Nc1ccccc1Cn1cccn1)N1CCC(N2CCCC2)C1 (stereo not drawn) | -2.57% |
| Cc1nc(CN(C)C2CCN(CCCOc3ccccc3)C2)no1 (stereo not drawn) | 39.5% |
| COc1ccc(-c2noc(C(CC(C)C)N3CCCCC3=O)n2)cn1 (stereo not drawn) | -0.898% |
| CC1=Nc2c(c(=O)[nH]n2C(C)C)C(c2ccc3ncccc3c2)S1 (stereo not drawn) | 0.555% |
| CCN1CC(COC(C)(C)C)Oc2ccncc2S1(=O)=O (stereo not drawn) | -4.84% |
| CCc1noc(C(C)N2CCN(Cc3noc(C)n3)CC2)n1 (stereo not drawn) | 26.6% |
| COCCCn1ccc(NC(=O)NCCc2cccnc2)n1 | -6.28% |
| O=C(NC1CCCC1)NC1CCc2[nH]c(=O)ccc2C1 (stereo not drawn) | -7.5% |
| CC(C)(O)CCc1cccc(C(=O)N2CCC3(CCO3)CC2)c1 | -1.91% |
| CC(C)(C#N)C(=O)N1CCCC(c2cc(C(F)(F)F)[nH]n2)C1 (stereo not drawn) | -0.389% |
| CN(C)c1cncc(C2CCN(CCO)CC2)n1 | -8.74% |
| O=C(CN1CCSC2(CCCCC2)C1)NCC(F)(F)F | -10.8% |
| O=C(CN1CCN(c2ccc3nncn3n2)CC1)NC1CCCCC1 | -11.1% |
| Cc1cc(CNc2ccc(C(=O)N3CCCC(C)C3)cc2C)no1 (stereo not drawn) | -16.5% |
| Cc1nn(C)c(Oc2ccc(Cl)cc2)c1CN1CC[C@H](CO)[C@@H](O)C1 | -12.9% |
| O=C(c1cscn1)N1CC[C@H]2C[C@H](c3nnc(C4CC4)o3)O[C@@H]2C1 | -10.6% |
| Cc1ccc(C(=O)N(C)CC(=O)NCC(F)(F)F)cn1 | 0.05% |
| CN(C)C[C@@H]1CN(C(=O)CCC2CCCC2)C[C@@H]1CO | 20.2% |
| N#CCSCCCN1CCN(C(=O)c2ccccc2F)CC1 | -12.3% |
| Cn1cncc1CNC1CC2(CCN(S(C)(=O)=O)CC2)c2ccccc21 (stereo not drawn) | -2.27% |
| Cc1noc(C)c1S(=O)(=O)NC(=O)COc1cccc(C(C)C)c1 | -2.21% |
| Cc1nc(CN2CCCN(CC(=O)N(C)C(C)(C)C#N)CC2)no1 | -10.4% |
| CC(C)(O)CCc1ccc(C(=O)NCCC2CCCOC2)cc1 (stereo not drawn) | -0.926% |

| Structure (SMILES) | cytotoxicity at 70.5 h |
| --- | --- |
| Cc1ncc(CN2CCN(C(=O)C3CCC3)[C@@H]3CS(=O)(=O)C[C@@H]32)cn1 | -16.2% |
| CN1CCc2nc(C3CCCN(C(=O)CC(C)(C)C)C3)ncc2C1 (stereo not drawn) | -6.36% |
| CC(C)c1nc(C2CCCN2Cc2cc(=O)n(C)c(=O)n2C)no1 (stereo not drawn) | -4.31% |
| O=S(=O)(NCCSc1nncn1C1CC1)c1ccccc1 | 30.9% |
| CN(Cc1cnn(C)c1)C1CCN(c2cccc(-c3cscn3)c2)CC1 | -2.02% |
| CCc1nc2c(s1)C(N(C)C(=O)c1cc[nH]n1)CCC2 (stereo not drawn) | -10.2% |
| c1csc(SCC2CN=C(N3CCOCC3)S2)c1 (stereo not drawn) | -3.45% |
| CCC(=O)NCC(=O)NCC1CCN(c2cc(Cl)ccc2C)C1 (stereo not drawn) | -1.96% |
| O=C(NCCC(=O)N1CCCC1)C(OC1CCCC1)c1ccccc1 (stereo not drawn) | 34.3% |
| CC(C)(C)NC(=O)CN1CCCC(c2ccc(C(=O)O)cc2)C1 (stereo not drawn) | 0.492% |
| Cc1cc(C(F)(F)F)cc(N2C[C@@H](CN3CCOCC3)[C@@H](CO)C2)n1 | -16.2% |
| Cn1ccc(C(=O)N(CC(F)F)c2cccc(Cl)c2)cc1=O | -2.11% |
| O=C(c1ccc(O)cc1)N1CCN(C(=O)c2ccc3c(c2)COC3)CC1 | 2.44% |
| O=C(COCc1ccco1)Nc1cc(C(F)(F)F)c[nH]c1=O | 31.5% |
| OCCN1CCN(CC(O)c2cc(Cl)ccc2Cl)CC1 (stereo not drawn) | -3.64% |
| CC1COCCN1c1ncnc2sccc12 (stereo not drawn) | 6.87% |
| CC1CCCCN1C(=O)c1nc2c(n1C(C)C)CCN(C)C2 (stereo not drawn) | -14% |
| CN1CCC(Cc2nc(-c3cnccn3)n(Cc3ccccc3)n2)CC1 | -4.63% |
| CCN(C(=O)c1nc2c(s1)CCCN2Cc1ccccc1)C(C)C | -7.5% |
| C=C(Cl)CN1CCC(C(=O)c2cc(F)ccc2F)CC1 | -10.5% |
| CCOCCCn1c(NC(=O)c2cnc(C)cn2)nc2ccccc21 | -5.61% |
